The record followed here is ChEMBL document CHEMBL1201862, “PubChem BioAssay data set” (2004).

Test systems include Malme-3M; MOLT-4; NCI-H460; TK-10; HCT-15; SK-MEL-28; HL-60; CCRF-CEM; SK-MEL-5; SF-295; SF-268; SK-OV-3; NCI-H23; M14; 786-0; U-251; UO-31; UACC-62; SNB-19.
Holding throughout (assay): DTP human tumour cell line panel, 48 h

Values joined by “and” are separate entries in the source; they are usually repeats but may differ in a detail not shown here. Equal values may be shown once.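 Cells were grown in 96-well plates and exposed to each compound for 48 hours at five concentrations; endpoints were interpolated linearly between bracketing concentrations, or set to the highest concentration if not reached. At the GI50, growth is halved.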 Active and inactive are the calls of the source. Cut-off read from the data, not from the text of the source: active = GI50 up to about 1.1 µM and inactive = higher.

Turning to `CC(C)C(NCc1c2ccccc2nc2ccccc12)C(=O)O` (centres undefined), the GI50 in the assay with Malme-3M is 55.3 µM (inactive); in the assay on MOLT-4, 15.2 µM (inactive); in the assay on NCI-H460 it was 31.1 µM (inactive); in the assay with TK-10 it was > 100 µM (inactive); in the assay on HCT-15, 35.7 µM; in the assay on SK-MEL-28 it was 87.5 µM (inactive). In addition, the GI50 with HL-60 was 25.3 µM (inactive); in the assay on CCRF-CEM, 23.8 µM (inactive); in the assay on SK-MEL-5 it was 64.4 µM (inactive); in the assay on SF-295, 81.5 µM (inactive); in the assay on SF-268, 36.7 µM (inactive); with SK-OV-3, > 100 µM (inactive). Also, the GI50 with NCI-H23 is 41.8 µM (inactive); in the assay with M14, 62.4 µM (inactive); in the assay with 786-0, 61.2 µM (inactive); in the assay on U-251, 91.8 µM (inactive).
For `Cc1cccc(C)c1NC(=O)C1C(=O)N(c2c(C)cccc2C)C(=O)/C1=N\NC(N)=S` (centres undefined), the GI50 is > 100 µM (inactive) with Malme-3M; 75.3 µM (inactive) in the assay with MOLT-4; > 100 µM (inactive) in the assay on NCI-H460; > 100 µM (inactive) in the assay on TK-10; above 100 µM with HCT-15; > 100 µM (inactive) with SK-MEL-28. The GI50 in the assay on UO-31, in the assay with UACC-62, in the assay on HL-60, with CCRF-CEM, in the assay on SK-MEL-5 and in the assay on SF-295 was > 100 µM (inactive) each time. The GI50 with SF-268, in the assay with NCI-H23, in the assay on M14, in the assay on 786-0, with U-251 and in the assay on SNB-19 was > 100 µM (inactive) in each case.
As to `COc1cc(/C=C2\C(=O)N(C(=O)c3ccc(NC(C)=O)cc3)N=C2C)ccc1O`, the GI50 in the assay with Malme-3M, with MOLT-4, in the assay with NCI-H460, with TK-10, in the assay on SK-MEL-28 and in the assay with UO-31 was > 100 µM (inactive) each time. Further, the GI50 with HL-60, with CCRF-CEM, in the assay on SK-MEL-5, in the assay with SF-295, in the assay with SF-268 and with NCI-H23 was > 100 µM (inactive) in each case. Also, the GI50 with M14, in the assay on 786-0 and in the assay on SNB-19 was > 100 µM (inactive) throughout.
With `Cc1ccc(S(=O)(=O)ON=C2CC(c3ccccc3)N(C)C(c3ccccc3)C2)cc1` (centres undefined), the GI50 is 25.5 µM (inactive) and 21.1 µM (inactive) with Malme-3M; 17.9 µM (inactive) and 20.6 µM (inactive) in the assay with MOLT-4; 19.2 µM (inactive) and 20.7 µM (inactive) with NCI-H460; 21.8 µM (inactive) and 20.6 µM (inactive) with TK-10; 16.7 µM and 18.5 µM in the assay on HCT-15; 23.8 µM (inactive) and 22.9 µM (inactive) with SK-MEL-28. The GI50 is 15.6 µM (inactive) and 16.9 µM (inactive) in the assay with UO-31; 16.1 µM (inactive) in the assay with UACC-62; 18.5 µM (inactive) and 25.2 µM (inactive) in the assay on CCRF-CEM; 17.4 µM (inactive) and 16.3 µM (inactive) in the assay on SK-MEL-5; 25.9 µM (inactive) and 25.1 µM (inactive) in the assay with SF-295; 22.8 µM (inactive) and 23.4 µM (inactive) in the assay with SF-268. In addition, the GI50 in the assay on SK-OV-3 was 22.5 µM (inactive) and 21.8 µM (inactive); in the assay with NCI-H23 it was 25.2 µM (inactive) and 19.9 µM (inactive); in the assay with M14 it was 19.4 µM (inactive) and 17.2 µM (inactive); with 786-0 it was 21.2 µM (inactive) and 22.9 µM (inactive); in the assay on U-251, 23.3 µM (inactive) and 21.1 µM (inactive); with SNB-19, 25.8 µM (inactive) and 32.7 µM (inactive).
On to `OCC1C(/C=C/c2ccoc2)ON2CCCC12` (centres undefined), for which the GI50 was 20.8 µM (inactive) with Malme-3M; > 100 µM (inactive) in the assay on NCI-H460; > 100 µM (inactive) in the assay with TK-10; > 100 µM (inactive) in the assay with SK-MEL-28; > 100 µM (inactive) with UO-31; > 100 µM (inactive) in the assay with HL-60. Besides, the GI50 in the assay on SF-295, in the assay on SF-268, with NCI-H23, in the assay on M14, in the assay with 786-0 and with U-251 was > 100 µM (inactive) in each case. In the assay on SNB-19, the GI50 was > 100 µM (inactive).
With `Nc1c(-c2ccc(Br)cc2)[n+]([O-])c2ccccc2[n+]1[O-]`, the GI50 in the assay with Malme-3M is > 100 µM (inactive); in the assay on MOLT-4, 39.2 µM (inactive); in the assay on NCI-H460, > 100 µM (inactive); with HCT-15, above 100 µM; in the assay with SK-MEL-28, > 100 µM (inactive); in the assay with UO-31, 38.6 µM (inactive). Further, the GI50 is 82.4 µM (inactive) in the assay with HL-60; > 100 µM (inactive) in the assay on SK-MEL-5; > 100 µM (inactive) with SF-295; > 100 µM (inactive) in the assay with SF-268; > 100 µM (inactive) with SK-OV-3; > 100 µM (inactive) with NCI-H23. For the same compound, the GI50 in the assay on M14 was > 100 µM (inactive); in the assay with 786-0 it was > 100 µM (inactive); in the assay with U-251, 78.2 µM (inactive); in the assay on SNB-19 it was > 100 µM (inactive).
Regarding `CC(C)=CCSC1CC2C(CC1(C)O)C2(C)C` (centres undefined), the GI50 in the assay on Malme-3M was 17.3 µM (inactive) and 16.4 µM (inactive); in the assay on MOLT-4, 13.6 µM (inactive) and 20.9 µM (inactive); with NCI-H460, 18.4 µM (inactive) and 14.2 µM (inactive); in the assay on TK-10 it was 18.1 µM (inactive) and 16.9 µM (inactive); with HCT-15, 17.3 µM and 16.1 µM; with SK-MEL-28, 16.8 µM (inactive) and 17 µM (inactive). The GI50 in the assay on UACC-62 is 15.4 µM (inactive) and 17.5 µM (inactive); in the assay on SF-295 it was 40.7 µM (inactive) and 20.9 µM (inactive); in the assay on SF-268, 18.3 µM (inactive) and 16.3 µM (inactive); in the assay on SK-OV-3, 15 µM (inactive) and 16.2 µM (inactive); with NCI-H23 it was 16.1 µM (inactive) and 12.5 µM (inactive); in the assay with M14, 17.7 µM (inactive) and 14.7 µM (inactive). Further, the GI50 with 786-0 was 15.9 µM (inactive) and 13.1 µM (inactive); with U-251 it was 15.2 µM (inactive) and 14.1 µM (inactive); in the assay with SNB-19, 17.2 µM (inactive) and 19.3 µM (inactive).
Consider `CCN(CC)CCCn1cnc2ncccc2c1=O`, for which the GI50 with Malme-3M, in the assay with NCI-H460, in the assay with TK-10, in the assay on SK-MEL-28, in the assay on UO-31 and in the assay on UACC-62 was > 100 µM (inactive) throughout. The GI50 in the assay on CCRF-CEM, in the assay with SK-MEL-5, in the assay with SF-295, in the assay with SF-268, in the assay on SK-OV-3 and in the assay on NCI-H23 was > 100 µM (inactive) throughout. Moreover, the GI50 in the assay on M14, with 786-0, in the assay with U-251 and with SNB-19 was > 100 µM (inactive) in each case.
Consider `Cc1ccc(-c2cc(=S)n(-c3ccccc3)c3[nH]c(=S)n(-c4ccccc4)c(=N)c23)cc1`, for which the GI50 in the assay with Malme-3M is > 100 µM (inactive); with MOLT-4, > 100 µM (inactive); with NCI-H460, > 100 µM (inactive); in the assay with TK-10, > 100 µM (inactive); in the assay with HCT-15, above 100 µM; in the assay on SK-MEL-28 it was > 100 µM (inactive). Also, the GI50 in the assay with UO-31, with UACC-62, in the assay on HL-60, in the assay on CCRF-CEM, with SK-MEL-5 and with SF-295 was > 100 µM (inactive) in each case. For the same compound, the GI50 in the assay on SF-268, with NCI-H23, in the assay on M14, in the assay on 786-0, in the assay with U-251 and with SNB-19 was > 100 µM (inactive) throughout.
On to `c1ccc(-c2nnc(-c3nn(-c4ccccc4)c4nc5ccccc5nc34)o2)cc1`, for which the GI50 with Malme-3M is 45.5 µM (inactive); in the assay with MOLT-4, 21.5 µM (inactive); with NCI-H460, > 10 µM (inactive); in the assay with TK-10, > 100 µM (inactive); in the assay with HCT-15 it was 43.5 µM; in the assay with SK-MEL-28 it was > 100 µM (inactive). Further, the GI50 in the assay with UO-31 is 37.2 µM (inactive); in the assay on UACC-62, 69.2 µM (inactive); in the assay with HL-60, 20.6 µM (inactive); in the assay with CCRF-CEM, 18.6 µM (inactive); in the assay on SF-295 it was > 100 µM (inactive); in the assay with SF-268 it was > 100 µM (inactive). The GI50 in the assay on SK-OV-3 was > 100 µM (inactive); in the assay with NCI-H23 it was 41.2 µM (inactive); in the assay on M14, 79.1 µM (inactive); in the assay with 786-0, 46.9 µM (inactive); with U-251 it was 85.1 µM (inactive); in the assay with SNB-19, > 100 µM (inactive).
Take `Nc1cc(C(=O)NC2C3CC4CC(C3)CC2C4)nc(S)n1` (centres undefined): the GI50 was > 100 µM (inactive) in the assay with Malme-3M; > 100 µM (inactive) in the assay with MOLT-4; > 100 µM (inactive) in the assay with NCI-H460; above 100 µM in the assay with HCT-15; > 100 µM (inactive) in the assay with SK-MEL-28; > 100 µM (inactive) in the assay with UO-31. The GI50 in the assay with HL-60, in the assay on CCRF-CEM, with SK-MEL-5, in the assay on SF-268, with SK-OV-3 and with NCI-H23 was > 100 µM (inactive) each time. Further, the GI50 in the assay on M14, in the assay with 786-0, in the assay with U-251 and in the assay with SNB-19 was > 100 µM (inactive) throughout.

A word on the GI50: it is the concentration at which growth is held to half of that of the control.
